Source: ChEMBL document CHEMBL6182870, “Synthesis and biological activity of 1H-pyrrolo[3,2-g]isoquinolines as Haspin kinase inhibitors” (Bioorg Med Chem, 2025)

Key:
SH-SY5Y = experiment: Antiproliferative activity against human SH-SY5Y cells assessed as inhibition of cell viability incubated for 48 hrs by MTS assay; type: functional, cell-based
U2OS = experiment: Antiproliferative activity against human U2OS cells assessed as inhibition of cell viability incubated for 48 hrs by MTS assay; type: functional, cell-based
[1] = target: T1, Serine/threonine-protein kinase haspin (Homo sapiens) (UniProt Q8TF76); experiment: Inhibition of recombinant human haspin kinase domain (470 to 798 residues) extracted from bacteria using histone H3 (1 to 21) peptide as substrate assessed as residual activity at 10 uM incubated for 30 mins in presence of ATP by ADP-Glo kinase assay relative to control
T1 sequence (whole entry): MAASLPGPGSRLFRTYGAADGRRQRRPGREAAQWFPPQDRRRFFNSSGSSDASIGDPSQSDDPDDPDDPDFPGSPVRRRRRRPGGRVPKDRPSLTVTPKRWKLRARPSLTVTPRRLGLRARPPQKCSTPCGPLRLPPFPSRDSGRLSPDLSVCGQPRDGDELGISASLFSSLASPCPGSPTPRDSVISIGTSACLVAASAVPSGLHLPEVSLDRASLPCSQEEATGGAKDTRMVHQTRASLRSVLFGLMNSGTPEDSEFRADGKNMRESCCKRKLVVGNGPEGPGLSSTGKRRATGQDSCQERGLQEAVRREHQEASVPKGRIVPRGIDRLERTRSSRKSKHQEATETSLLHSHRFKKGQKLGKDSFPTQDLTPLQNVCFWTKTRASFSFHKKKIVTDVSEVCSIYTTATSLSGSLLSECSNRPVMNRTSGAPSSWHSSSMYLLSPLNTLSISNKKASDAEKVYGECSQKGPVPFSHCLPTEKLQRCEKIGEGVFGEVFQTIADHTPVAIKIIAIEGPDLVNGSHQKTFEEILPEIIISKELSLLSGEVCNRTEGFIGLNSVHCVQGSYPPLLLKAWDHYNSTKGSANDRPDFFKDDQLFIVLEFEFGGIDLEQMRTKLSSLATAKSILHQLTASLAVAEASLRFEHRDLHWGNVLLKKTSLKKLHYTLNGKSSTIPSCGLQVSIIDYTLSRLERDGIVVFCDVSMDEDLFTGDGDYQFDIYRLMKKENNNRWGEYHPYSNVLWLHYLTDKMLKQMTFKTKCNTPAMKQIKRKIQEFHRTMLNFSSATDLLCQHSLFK

[2] = target: T1, Serine/threonine-protein kinase haspin (Homo sapiens); experiment: Inhibition of recombinant human haspin kinase domain (470 to 798 residues) extracted from bacteria using histone H3 (1 to 21) peptide as substrate assessed as residual activity at 1 uM incubated for 30 mins in presence of ATP by ADP-Glo kinase assay relative to control
[3] = target: T2, Serine/threonine-protein kinase haspin (Homo sapiens, UniProt Q8TF76); experiment: Inhibition of recombinant human haspin kinase domain (470 to 798 residues) extracted from bacteria using histone H3 (1 to 21) peptide as substrate incubated for 30 mins in presence of ATP by ADP-Glo kinase assay
T2 sequence (Q8TF76 whole entry): T1 sequence (whole entry)

[4] = target: Dual specificity tyrosine-phosphorylation-regulated kinase 1A (Rattus norvegicus) (UniProt Q63470); experiment: Inhibition of recombinant rat DYRK1A kinase domain (1 to 499 residues) extracted from bacteria using KKISGRLSPIMTEQ as substrate assessed as enzyme residual activity at 10 uM incubated for 30 mins in presence of ATP by ADP-Glo kinase assay relative to control
[5] = target: Dual specificity protein kinase CLK1 (Mus musculus) (UniProt P22518); experiment: Inhibition of recombinant mouse CLK1 extracted from bacteria using GRSRSRSRSRSR as substrate assessed as enzyme residual activity at 10 uM incubated for 30 mins in presence of ATP by ADP-Glo kinase assay relative to control
Sequence of Dual specificity protein kinase CLK1 (Mus musculus) (P22518 whole entry, looked up): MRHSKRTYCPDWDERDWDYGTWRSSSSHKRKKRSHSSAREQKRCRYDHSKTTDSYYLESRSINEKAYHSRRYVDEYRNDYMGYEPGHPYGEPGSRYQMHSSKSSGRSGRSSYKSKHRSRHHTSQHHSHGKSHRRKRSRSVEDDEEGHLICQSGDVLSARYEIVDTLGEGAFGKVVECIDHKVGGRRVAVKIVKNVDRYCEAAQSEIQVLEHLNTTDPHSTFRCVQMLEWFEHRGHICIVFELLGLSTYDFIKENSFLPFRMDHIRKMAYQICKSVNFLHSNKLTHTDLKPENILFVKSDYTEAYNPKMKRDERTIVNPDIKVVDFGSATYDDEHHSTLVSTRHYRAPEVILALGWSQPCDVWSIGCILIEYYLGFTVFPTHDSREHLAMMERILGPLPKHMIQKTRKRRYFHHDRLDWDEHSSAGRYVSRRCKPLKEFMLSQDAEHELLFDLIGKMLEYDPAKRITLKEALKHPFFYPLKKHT

[6] = target: Dual specificity protein kinase CLK1 (Mus musculus) (UniProt P22518); experiment: Inhibition of recombinant mouse CLK1 extracted from bacteria using GRSRSRSRSRSR as substrate assessed as enzyme residual activity at 1 uM incubated for 30 mins in presence of ATP by ADP-Glo kinase assay relative to control
[7] = target: Dual specificity protein kinase CLK1 (Mus musculus, UniProt P22518); experiment: Inhibition of recombinant mouse CLK1 extracted from bacteria using GRSRSRSRSRSR as substrate incubated for 30 mins in presence of ATP by ADP-Glo kinase assay
Sequence of Dual specificity protein kinase CLK1 (P22518 whole entry, the tested form may be a part): as the sequence (P22518 whole entry, looked up) above

[8] = target: Dual specificity tyrosine-phosphorylation-regulated kinase 1A (Rattus norvegicus) (UniProt Q63470); experiment: Inhibition of recombinant rat DYRK1A kinase domain (1 to 499 residues) extracted from bacteria using KKISGRLSPIMTEQ as substrate assessed as enzyme residual activity at 1 uM incubated for 30 mins in presence of ATP by ADP-Glo kinase assay relative to control
[9] = target: Dual specificity tyrosine-phosphorylation-regulated kinase 1A (Rattus norvegicus, UniProt Q63470); experiment: Inhibition of recombinant rat DYRK1A kinase domain (1 to 499 residues) extracted from bacteria using KKISGRLSPIMTEQ as substrate incubated for 30 mins in presence of ATP by ADP-Glo kinase assay
[10] = Inhibition of recombinant human CDK9/Cyclin T extracted from baculovirus infected Sf9 cells using YSPTSPSYSPTSPSYSPTSPSKKKK as substrate assessed as enzyme residual activity at 10 uM incubated for 30 mins in presence of ATP by ADP-Glo kinase assay relative to control
[11] = Inhibition of recombinant human CDK9/Cyclin T extracted from baculovirus infected Sf9 cells using YSPTSPSYSPTSPSYSPTSPSKKKK as substrate assessed as enzyme residual activity at 1 uM incubated for 30 mins in presence of ATP by ADP-Glo kinase assay relative to control
[12] = target: Glycogen synthase kinase-3 beta (Homo sapiens) (UniProt P49841); experiment: Inhibition of recombinant human GSK3beta extracted from baculovirus infected Sf9 cells using GS-1 (YRRAAVPPSPSLSRHSSPHQSpEDEEE) peptide as substrate assessed as enzyme residual activity at 10 uM incubated for 30 mins in presence of ATP by ADP-Glo kinase assay relative to control
Sequence of Glycogen synthase kinase-3 beta (Homo sapiens) (P49841 whole entry, looked up, canonical isoform): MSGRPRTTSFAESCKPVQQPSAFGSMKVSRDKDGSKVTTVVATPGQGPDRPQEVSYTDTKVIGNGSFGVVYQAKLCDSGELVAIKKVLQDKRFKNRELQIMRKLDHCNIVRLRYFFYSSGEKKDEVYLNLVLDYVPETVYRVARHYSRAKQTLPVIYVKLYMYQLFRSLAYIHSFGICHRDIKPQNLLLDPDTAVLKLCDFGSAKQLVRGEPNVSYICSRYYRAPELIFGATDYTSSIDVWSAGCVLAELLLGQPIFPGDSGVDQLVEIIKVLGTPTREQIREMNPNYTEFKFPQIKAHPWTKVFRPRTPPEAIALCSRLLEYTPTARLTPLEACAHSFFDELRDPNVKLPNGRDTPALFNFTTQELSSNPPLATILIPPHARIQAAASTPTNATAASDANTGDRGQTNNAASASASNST

[13] = target: Glycogen synthase kinase-3 beta (Homo sapiens) (UniProt P49841); experiment: Inhibition of recombinant human GSK3beta extracted from baculovirus infected Sf9 cells using GS-1 (YRRAAVPPSPSLSRHSSPHQSpEDEEE) peptide as substrate assessed as enzyme residual activity at 1 uM incubated for 30 mins in presence of ATP by ADP-Glo kinase assay relative to control
[14] = target: Casein kinase I isoform epsilon (Homo sapiens) (UniProt P49674); experiment: Inhibition of recombinant human CK1epsilon extracted from baculovirus infected Sf9 cells using RRKHAAIGSpAYSITA peptide as substrate assessed as enzyme residual activity at 10 uM incubated for 30 mins in presence of ATP by ADP-Glo kinase assay relative to control
Sequence of Casein kinase I isoform epsilon (Homo sapiens) (P49674 whole entry, looked up, canonical isoform): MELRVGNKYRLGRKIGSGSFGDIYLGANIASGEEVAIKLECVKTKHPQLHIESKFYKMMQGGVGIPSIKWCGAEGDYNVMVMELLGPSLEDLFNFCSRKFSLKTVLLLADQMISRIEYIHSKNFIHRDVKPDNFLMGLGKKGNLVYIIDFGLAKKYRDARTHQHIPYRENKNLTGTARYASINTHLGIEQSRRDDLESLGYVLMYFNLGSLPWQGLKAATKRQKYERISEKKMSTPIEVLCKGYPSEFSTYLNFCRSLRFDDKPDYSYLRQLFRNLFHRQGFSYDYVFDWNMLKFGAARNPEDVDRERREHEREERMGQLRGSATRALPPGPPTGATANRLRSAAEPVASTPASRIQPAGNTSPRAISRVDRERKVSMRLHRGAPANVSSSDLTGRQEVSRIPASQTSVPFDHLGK

[15] = target: Casein kinase I isoform epsilon (Homo sapiens) (UniProt P49674); experiment: Inhibition of recombinant human CK1epsilon extracted from baculovirus infected Sf9 cells using RRKHAAIGSpAYSITA peptide as substrate assessed as enzyme residual activity at 1 uM incubated for 30 mins in presence of ATP by ADP-Glo kinase assay relative to control
[16] = target: T3, Cyclin-dependent kinase 5/CDK5 activator 1 (Homo sapiens) (UniProt Q00535+Q15078); experiment: Inhibition of recombinant human CDK5/p25 extracted from bacteria using histone H1 as substrate assessed as enzyme residual activity at 10 uM incubated for 30 mins in presence of ATP by ADP-Glo kinase assay relative to control; type: protein-complex assay
T3 sequence (Q00535 whole entry): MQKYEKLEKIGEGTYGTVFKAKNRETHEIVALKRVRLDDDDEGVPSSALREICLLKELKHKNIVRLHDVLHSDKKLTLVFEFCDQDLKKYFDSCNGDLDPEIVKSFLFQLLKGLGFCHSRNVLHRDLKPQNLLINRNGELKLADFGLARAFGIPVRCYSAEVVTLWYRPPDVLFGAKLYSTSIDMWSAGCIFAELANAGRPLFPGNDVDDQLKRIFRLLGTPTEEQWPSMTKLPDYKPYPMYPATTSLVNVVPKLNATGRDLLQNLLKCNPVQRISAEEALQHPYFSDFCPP
T3 sequence (Q15078 99-307 partner limits assumed): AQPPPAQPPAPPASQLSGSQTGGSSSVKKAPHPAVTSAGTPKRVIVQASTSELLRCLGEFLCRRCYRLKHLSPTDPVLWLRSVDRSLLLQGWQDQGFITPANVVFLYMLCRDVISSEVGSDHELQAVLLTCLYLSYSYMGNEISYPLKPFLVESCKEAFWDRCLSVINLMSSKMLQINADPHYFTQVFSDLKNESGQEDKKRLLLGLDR

[17] = target: T3, Cyclin-dependent kinase 5/CDK5 activator 1 (Homo sapiens); experiment: Inhibition of recombinant human CDK5/p25 extracted from bacteria using histone H1 as substrate assessed as enzyme residual activity at 1 uM incubated for 30 mins in presence of ATP by ADP-Glo kinase assay relative to control; type: protein-complex assay
[18] = target: T4, Serine/threonine-protein kinase pim-1 (Homo sapiens, UniProt P11309); experiment: Inhibition of recombinant human PIM-1 extracted from bacteria using histone H1 as substrate assessed as enzyme residual activity at 10 uM incubated for 30 mins in presence of ATP by ADP-Glo kinase assay relative to control
Target sequence in this assay (P11309 whole entry, looked up): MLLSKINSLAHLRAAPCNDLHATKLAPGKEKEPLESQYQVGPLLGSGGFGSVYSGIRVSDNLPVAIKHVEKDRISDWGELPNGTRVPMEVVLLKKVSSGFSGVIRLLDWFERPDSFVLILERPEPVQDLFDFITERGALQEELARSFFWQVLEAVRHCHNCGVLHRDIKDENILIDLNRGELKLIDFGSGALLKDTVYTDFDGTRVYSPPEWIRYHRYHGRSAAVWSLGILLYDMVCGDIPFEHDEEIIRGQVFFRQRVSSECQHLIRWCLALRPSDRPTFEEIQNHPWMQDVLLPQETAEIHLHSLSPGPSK

[19] = target: T4, Serine/threonine-protein kinase pim-1; experiment: Inhibition of recombinant human PIM-1 extracted from bacteria using histone H1 as substrate assessed as enzyme residual activity at 1 uM incubated for 30 mins in presence of ATP by ADP-Glo kinase assay relative to control
Target sequence in this assay (P11309 whole entry, looked up): as above

[20] = target: T4, Serine/threonine-protein kinase pim-1; experiment: Inhibition of recombinant human PIM-1 extracted from bacteria using histone H1 as substrate incubated for 30 mins in presence of ATP by ADP-Glo kinase assay
Target sequence in this assay (P11309 whole entry): as the sequence (P11309 whole entry, looked up) above

[21] = Cytotoxicity against human hTERT-RPE1 cells assessed as effect on cell viability incubated for 48 hrs by MTS assay; type: toxicity, cell-based, TERT-RPE1
HBL-100 = experiment: Antiproliferative activity against human HBL-100 cells assessed as inhibition of cell viability incubated for 48 hrs by MTS assay; type: functional, cell-based; conditions: HBL-100, 48 h
HCT-116 = experiment: Antiproliferative activity against human HCT-116 cells assessed as inhibition of cell viability incubated for 48 hrs by MTS assay; type: functional, cell-based; conditions: HCT-116, 48 h
[22] = target: T1, Serine/threonine-protein kinase haspin (Homo sapiens); experiment: Inhibition of haspin in human U2OS cells assessed as at 5 uM incubated for 16 hrs by DAPI staining based immunofluorescence analysis relative to control; type: cell-based
[23] = target: T1, Serine/threonine-protein kinase haspin (Homo sapiens); experiment: Inhibition of haspin in human U2OS cells assessed as at 1 uM incubated for 16 hrs by DAPI staining based immunofluorescence analysis relative to control; type: cell-based
[24] = Selectivity index, ratio of IC50 for inhibition of recombinant rat DYRK1A kinase domain (1to 499 residues) extracted from bacteria to IC50 for inhibition of human haspin kinase domain (470 to 798 residues) extracted from bacteria using histone H3 (1 to 21) peptide as substrate

| SMILES | EC50 (SH-SY5Y) [nM] | Activity [1] [%] | Activity [2] [%] | IC50 [3] [nM] | Activity [4] [%] | Activity [5] [%] | Activity [6] [%] | IC50 [7] [nM] | Activity [8] [%] | IC50 [9] [nM] | Activity [10] [%] | Activity [11] [%] | Activity [12] [%] | Activity [13] [%] | Activity [14] [%] | Activity [15] [%] | Activity [16] [%] | Activity [17] [%] | Activity [18] [%] | Activity [19] [%] | also measured |
| --- | --- | --- | --- | --- | --- | --- | --- | --- | --- | --- | --- | --- | --- | --- | --- | --- | --- | --- | --- | --- | --- |
| Cn1cc(-c2cccnc2)c2cc3ccncc3cc21 | 17700 | 3 | 9 | 31.7 | 12 | 7 | 18 | 177 | 33 | 498 | 39 | 81 | 34 | 69 | 65 | 94 | 75 | 79 | 54 | 45 | EC50 (U2OS): 11500 nM; IC50 [20]: 876 nM; EC50 at 48 h [21]: 17800 nM; EC50 (HBL-100): 26900 nM; EC50 (HCT-116): 15000 nM; inhibition [22]: No effect |
| CCCNc1ccc2ncc(-c3ccc4[nH]ncc4c3)n2n1 |  |  |  |  |  |  |  |  |  |  |  |  |  |  |  |  |  |  |  |  | inhibition [23]: 100% |
| Cn1cc(-c2ccncc2)c2cc3ccncc3cc21 | 6400 | 5 | 7 | 23.6 | 9 | 13 | 35 | 546 | 23 | 339 | 59 | 97 | 92 | 74 | 42 | 72 | 44 | 63 | 18 | 37 | EC50 (U2OS): 3200 nM; IC50 [20]: 1270 nM; EC50 at 48 h [21]: 2300 nM; EC50 (HBL-100): 6600 nM; EC50 (HCT-116): 2100 nM; inhibition [22]: 37% |
| c1cncc(-c2c[nH]c3cc4cnccc4cc23)c1 | 41200 | 2 | 7 | 30.6 | 6 | 8 | 19 | 237 | 36 | 602 | 39 | 74 | 37 | 75 | 70 | 91 | 57 | 86 | 22 | 37 | EC50 (U2OS): 26700 nM; IC50 [20]: 114 nM; EC50 at 48 h [21]: 18200 nM; EC50 (HBL-100): > 50000 nM; EC50 (HCT-116): 13000 nM; inhibition [22]: 26% |
| c1ccc(-c2c[nH]c3cc4cnccc4cc23)nc1 |  | 3 | 8 | 84.4 | 11 | 10 | 27 | 387 | 27 | 159 | 49 | 90 | 72 | 84 | 90 | 97 | 35 | 72 | 19 | 63 | Ratio IC50 [24]: 1.9 |
